Assay results: US20170114030A1, “COMPOSITION WITH HIGH CONTENT OF CYCLIC DIPEPTIDE” (SUNTORY HOLDINGS LIMITED, priority 2014, published 2017)

Test system: NCI-H716 cells
Assay: In vitro GLP-1 secretion-accelerating action (active GLP-1 ELISA)
Type: cell-based
Conditions: for Significant difference (p < 0.05) vs control group, amount of active GLP-1 secreted: 1 hour, Student's t-test; for Amount of active GLP-1 secreted (relative value to control group as 100), Average value: after 1 hour, group with no cyclic dipeptide = 100
Description: In the Test Examples below, data were represented as average value±standard error. In Test Examples 1, 2, and 3, a Student's t-test was used for a statistical test, and in other Test Examples, one-way ANOVA was carried out for dispersion analysis followed by a multiple comparison test by using a Dunnet's test. […] All of these analyses were carried out by using an SPSS for Windows release 17.0 (manufactured by SPSS Inc.).
Among the cyclic dipeptides, 92 highly water-soluble cyclic dipeptides were used in the following experiment. In each well of a Poly-L-Lysine 96-well plate, NCI-H716 cells suspended in 100 μL of a DMEM (with 10% FBS, 2 mM glutamine, and 1% antibiotics added in advance) were seeded at 0.5×10^5 cells/well, and cultured in a CO2 incubator (manufactured by ESPEC CORP.) for 48 hours. After washing with PBS(+), 100 μL of a PBS(+) solution with each cyclic dipeptide at a final concentration of 10 mM and 10 μM of Sitagliptin phosphate added therein was added to the cells. After 1 hour, the resultant solution was recovered, and the amount of active GLP-1 in the solution was measured by using the ELISA kit. In the analysis, the amount of active GLP-1 for a group with no cyclic dipeptide added was defined as 100, and relative values thereto were used.
In each Table, cyclic dipeptides for which an in vitro active GLP-1 secretion-accelerating activity was found and was not found are listed.

[1] = Experiment 5, cyclic dipeptide 10 mM with 10 μM Sitagliptin phosphate
[2] = Experiment 1, cyclic dipeptide 10 mM with 10 μM Sitagliptin phosphate
[3] = Experiment 2, cyclic dipeptide 10 mM with 10 μM Sitagliptin phosphate
[4] = Experiment 3, cyclic dipeptide 10 mM with 10 μM Sitagliptin phosphate

With O=C1NCC(=O)N2CCCC12 (centres unmarked) [compound 4] the “Significant difference (p < 0.05) vs control group, amount of active GLP-1 secreted” value (Experiment 5, 10 mM) was “Yes” and the “Amount of active GLP-1 secreted (relative value to control group as 100), Average value” [1] was 157.

For CC(C)CC1NC(=O)CNC1=O (centres unmarked) [compound 21], the “Significant difference (p < 0.05) vs control group, amount of active GLP-1 secreted” value (Experiment 5, 10 mM) was “No” and the “Amount of active GLP-1 secreted (relative value to control group as 100), Average value” [1] was 131.

For O=C(O)CCC1NC(=O)CNC1=O (centres unmarked) [compound 24], the “Significant difference (p < 0.05) vs control group, amount of active GLP-1 secreted” value (Experiment 5, 10 mM) was “No” and the “Amount of active GLP-1 secreted (relative value to control group as 100), Average value” [1] was 89.

With O=C1CNC(=O)C(Cc2c[nH]cn2)N1 (centres unmarked) [compound 27] the “Significant difference (p < 0.05) vs control group, amount of active GLP-1 secreted” value (Experiment 5, 10 mM) was “No” and the “Amount of active GLP-1 secreted (relative value to control group as 100), Average value” [1] was 82.

For O=C(O)CC1NC(=O)CNC1=O (centres unmarked) [compound 32], the “Significant difference (p < 0.05) vs control group, amount of active GLP-1 secreted” value (Experiment 5, 10 mM) was “Yes” and the “Amount of active GLP-1 secreted (relative value to control group as 100), Average value” [1] was 12.

In the case of NC(=O)CCC1NC(=O)CNC1=O (centres unmarked) [compound 36], the “Significant difference (p < 0.05) vs control group, amount of active GLP-1 secreted” value (Experiment 5, 10 mM) is reported as “No” and the “Amount of active GLP-1 secreted (relative value to control group as 100), Average value” [1] is reported as 75.

With NCCCC[C@@H]1NC(=O)[C@H](CCCCN)NC1=O [compound 40] the “Significant difference (p < 0.05) vs control group, amount of active GLP-1 secreted” value (Experiment 1, 10 mM) was “No” and the “Amount of active GLP-1 secreted (relative value to control group as 100), Average value” [2] was 164.

O=C(O)CC[C@@H]1NC(=O)[C@@H]2CCCN2C1=O [compound 45] was tested, and the “Significant difference (p < 0.05) vs control group, amount of active GLP-1 secreted” value (Experiment 1, 10 mM) was “No” and the “Amount of active GLP-1 secreted (relative value to control group as 100), Average value” [2] was 145.

For O=C1N[C@@H](CO)C(=O)N2CCC[C@@H]12 [compound 46], the “Significant difference (p < 0.05) vs control group, amount of active GLP-1 secreted” value (Experiment 2, 10 mM) was “No” and the “Amount of active GLP-1 secreted (relative value to control group as 100), Average value” [3] was 139.

NC(=O)CC[C@@H]1NC(=O)[C@H](Cc2ccccc2)NC1=O [compound 65] was tested, and the “Significant difference (p < 0.05) vs control group, amount of active GLP-1 secreted” value (Experiment 2, 10 mM) was “Yes” and the “Amount of active GLP-1 secreted (relative value to control group as 100), Average value” [3] was 227.

CC(C)C[C@@H]1NC(=O)[C@H](CCCCN)NC1=O [compound 68] was tested, and the “Significant difference (p < 0.05) vs control group, amount of active GLP-1 secreted” value (Experiment 2, 10 mM) was “No” and the “Amount of active GLP-1 secreted (relative value to control group as 100), Average value” [3] was 208.

O=C1N[C@@H](Cc2c[nH]c3ccccc23)C(=O)N[C@H]1CO [compound 78] was tested, and the “Significant difference (p < 0.05) vs control group, amount of active GLP-1 secreted” value (Experiment 2, 10 mM) was “No” and the “Amount of active GLP-1 secreted (relative value to control group as 100), Average value” [3] was 119.

In the case of NCCCC[C@@H]1NC(=O)CNC1=O [compound 96], the “Significant difference (p < 0.05) vs control group, amount of active GLP-1 secreted” value (Experiment 3, 10 mM) is reported as “Yes” and the “Amount of active GLP-1 secreted (relative value to control group as 100), Average value” [4] is reported as 133.

For NCCCCC1NC(=O)C(CCC(=O)O)NC1=O (centres unmarked) [compound 97], the “Significant difference (p < 0.05) vs control group, amount of active GLP-1 secreted” value (Experiment 3, 10 mM) was “No” and the “Amount of active GLP-1 secreted (relative value to control group as 100), Average value” [4] was 66.

For NCCCCC1NC(=O)C(CO)NC1=O (centres unmarked) [compound 98], the “Significant difference (p < 0.05) vs control group, amount of active GLP-1 secreted” value (Experiment 3, 10 mM) was “Yes” and the “Amount of active GLP-1 secreted (relative value to control group as 100), Average value” [4] was 71.

For CC(C)C1NC(=O)C(CCCCN)NC1=O (centres unmarked) [compound 99], the “Significant difference (p < 0.05) vs control group, amount of active GLP-1 secreted” value (Experiment 3, 10 mM) was “Yes” and the “Amount of active GLP-1 secreted (relative value to control group as 100), Average value” [4] was 532.

With NCCCCC1NC(=O)C(CC(N)=O)NC1=O (centres unmarked) [compound 101] the “Significant difference (p < 0.05) vs control group, amount of active GLP-1 secreted” value (Experiment 3, 10 mM) was “Yes” and the “Amount of active GLP-1 secreted (relative value to control group as 100), Average value” [4] was 250.

In the case of NCCCCC1NC(=O)C(CCC(N)=O)NC1=O (centres unmarked) [compound 102], the “Significant difference (p < 0.05) vs control group, amount of active GLP-1 secreted” value (Experiment 3, 10 mM) is reported as “No” and the “Amount of active GLP-1 secreted (relative value to control group as 100), Average value” [4] is reported as 112.

In the case of NC(=O)CC1NC(=O)C(Cc2cnc[nH]2)NC1=O (centres unmarked) [compound 111], the “Significant difference (p < 0.05) vs control group, amount of active GLP-1 secreted” value (Experiment 3, 10 mM) is reported as “Yes” and the “Amount of active GLP-1 secreted (relative value to control group as 100), Average value” [4] is reported as 341.

N=C(N)NCCCC1NC(=O)C(Cc2cnc[nH]2)NC1=O (centres unmarked) [compound 112] was tested, and the “Significant difference (p < 0.05) vs control group, amount of active GLP-1 secreted” value (Experiment 3, 10 mM) was “No” and the “Amount of active GLP-1 secreted (relative value to control group as 100), Average value” [4] was 106.

With CC1NC(=O)C(CCC(=O)O)NC1=O (centres unmarked) [compound 113] the “Significant difference (p < 0.05) vs control group, amount of active GLP-1 secreted” value (Experiment 3, 10 mM) was “No” and the “Amount of active GLP-1 secreted (relative value to control group as 100), Average value” [4] was 157.

With N=C(N)NCCCC1NC(=O)CNC1=O (centres unmarked) [compound 117] the “Significant difference (p < 0.05) vs control group, amount of active GLP-1 secreted” value (Experiment 3, 10 mM) was “No” and the “Amount of active GLP-1 secreted (relative value to control group as 100), Average value” [4] was 98.
